# Results taken from ChEMBL document CHEMBL3045592, “Studies of O,O-dimethyl α-(2,4-dichlorophenoxyacetoxy)ethylphosphonate (HW02) as a new herbicide. 1. Synthesis and herbicidal activity of HW02 and analogues as novel inhibitors of pyruvate dehydrogenase complex” (J Agric Food Chem, 2011).
# Legend:
# Digitaria sanguinalis [1] = assay: Pre-emergence herbicidal activity against Digitaria sanguinalis (hairy crabgrass) assessed as growth inhibition at 450 ai g/ha after 20 days by green house test; assay type: functional
# Digitaria sanguinalis [2] = assay: Pre-emergence herbicidal activity against Digitaria sanguinalis (hairy crabgrass) assessed as growth inhibition at 150 ai g/ha after 20 days by green house test; assay type: functional
# Chenopodium album [3] = assay: Post-emergence herbicidal activity against Chenopodium album assessed as growth inhibition at 450 ai g/ha after 20 days by green house test; assay type: functional
# Chenopodium album [4] = assay: Post-emergence herbicidal activity against Chenopodium album assessed as growth inhibition at 150 ai g/ha after 20 days by green house test; assay type: functional
# Chenopodium album [5] = assay: Pre-emergence herbicidal activity against Chenopodium album assessed as growth inhibition at 450 ai g/ha after 20 days by green house test; assay type: functional
# Chenopodium album [6] = assay: Pre-emergence herbicidal activity against Chenopodium album assessed as growth inhibition at 150 ai g/ha after 20 days by green house test; assay type: functional
# Amaranthus spinosus [7] = assay: Post-emergence herbicidal activity against Amaranthus spinosus assessed as growth inhibition at 450 ai g/ha after 20 days by green house test; assay type: functional
# Amaranthus spinosus [8] = assay: Post-emergence herbicidal activity against Amaranthus spinosus assessed as growth inhibition at 150 ai g/ha after 20 days by green house test; assay type: functional
# Abutilon theophrasti [9] = assay: Pre-emergence herbicidal activity against Abutilon theophrasti (velvetleaf) assessed as growth inhibition at 450 ai g/ha after 20 days by green house test; assay type: functional
# Abutilon theophrasti [10] = assay: Pre-emergence herbicidal activity against Abutilon theophrasti (velvetleaf) assessed as growth inhibition at 150 ai g/ha after 20 days by green house test; assay type: functional
# Medicago sativa [11] = assay: Post-emergence herbicidal activity against Medicago sativa (alfalfa) assessed as growth inhibition at 1500 ai g/ha after 20 days by green house test; assay type: functional
# Amaranthus retroflexus [12] = assay: Post-emergence herbicidal activity against Amaranthus retroflexus assessed as growth inhibition at 1500 ai g/ha after 20 days by green house test; assay type: functional
# [13] = test system: Brassica rapa subsp. oleifera; assay: Post-emergence herbicidal activity against Brassica rapa subsp. oleifera Si Yue Man assessed as growth inhibition at 1500 ai g/ha after 20 days by green house test; assay type: functional
# Digitaria sanguinalis [14] = assay: Post-emergence herbicidal activity against Digitaria sanguinalis (hairy crabgrass) assessed as growth inhibition at 1500 ai g/ha after 20 days by green house test; assay type: functional
# Echinochloa crus-galli [15] = assay: Post-emergence herbicidal activity against Echinochloa crus-galli (barnyard grass) assessed as growth inhibition at 1500 ai g/ha after 20 days by green house test; assay type: functional
# Medicago sativa [16] = assay: Pre-emergence herbicidal activity against Medicago sativa (alfalfa) assessed as growth inhibition at 1500 ai g/ha after 20 days by green house test; assay type: functional
# Amaranthus retroflexus [17] = assay: Pre-emergence herbicidal activity against Amaranthus retroflexus assessed as growth inhibition at 1500 ai g/ha after 20 days by green house test; assay type: functional
# [18] = test system: Brassica rapa subsp. oleifera; assay: Pre-emergence herbicidal activity against Brassica rapa subsp. oleifera Si Yue Man assessed as growth inhibition at 1500 ai g/ha after 20 days by green house test; assay type: functional
# Digitaria sanguinalis [19] = assay: Pre-emergence herbicidal activity against Digitaria sanguinalis (hairy crabgrass) assessed as growth inhibition at 1500 ai g/ha after 20 days by green house test; assay type: functional
# Echinochloa crus-galli [20] = assay: Pre-emergence herbicidal activity against Echinochloa crus-galli (barnyard grass) assessed as growth inhibition at 1500 ai g/ha after 20 days by green house test; assay type: functional
# Amaranthus spinosus [21] = assay: Pre-emergence herbicidal activity against Amaranthus spinosus assessed as growth inhibition at 450 ai g/ha after 20 days by green house test; assay type: functional
# Amaranthus spinosus [22] = assay: Pre-emergence herbicidal activity against Amaranthus spinosus assessed as growth inhibition at 150 ai g/ha after 20 days by green house test; assay type: functional
# Abutilon theophrasti [23] = assay: Post-emergence herbicidal activity against Abutilon theophrasti (velvetleaf) assessed as growth inhibition at 450 ai g/ha after 20 days by green house test; assay type: functional
# Abutilon theophrasti [24] = assay: Post-emergence herbicidal activity against Abutilon theophrasti (velvetleaf) assessed as growth inhibition at 150 ai g/ha after 20 days by green house test; assay type: functional
# Setaria viridis [25] = assay: Post-emergence herbicidal activity against Setaria viridis (green foxtail) assessed as growth inhibition at 450 ai g/ha after 20 days by green house test; assay type: functional
# Setaria viridis [26] = assay: Post-emergence herbicidal activity against Setaria viridis (green foxtail) assessed as growth inhibition at 150 ai g/ha after 20 days by green house test; assay type: functional
# Setaria viridis [27] = assay: Pre-emergence herbicidal activity against Setaria viridis (green foxtail) assessed as growth inhibition at 450 ai g/ha after 20 days by green house test; assay type: functional
# Setaria viridis [28] = assay: Pre-emergence herbicidal activity against Setaria viridis (green foxtail) assessed as growth inhibition at 150 ai g/ha after 20 days by green house test; assay type: functional
# Digitaria sanguinalis [29] = assay: Post-emergence herbicidal activity against Digitaria sanguinalis (hairy crabgrass) assessed as growth inhibition at 450 ai g/ha after 20 days by green house test; assay type: functional
# Digitaria sanguinalis [30] = assay: Post-emergence herbicidal activity against Digitaria sanguinalis (hairy crabgrass) assessed as growth inhibition at 150 ai g/ha after 20 days by green house test; assay type: functional
# Brassica juncea = assay: Post-emergence herbicidal activity against Brassica juncea assessed as growth inhibition at 450 ai g/ha after 20 days by green house test; assay type: functional
# Digitaria sanguinalis [31] = assay: Post-emergence herbicidal activity against Digitaria sanguinalis (hairy crabgrass) assessed as growth inhibition at 75 ai g/ha after 20 days by green house test; assay type: functional
# Digitaria sanguinalis [32] = assay: Pre-emergence herbicidal activity against Digitaria sanguinalis (hairy crabgrass) assessed as growth inhibition at 75 ai g/ha after 20 days by green house test; assay type: functional
# Chenopodium album [33] = assay: Post-emergence herbicidal activity against Chenopodium album assessed as growth inhibition at 75 ai g/ha after 20 days by green house test; assay type: functional
# Chenopodium album [34] = assay: Pre-emergence herbicidal activity against Chenopodium album assessed as growth inhibition at 75 ai g/ha after 20 days by green house test; assay type: functional
# Amaranthus spinosus [35] = assay: Post-emergence herbicidal activity against Amaranthus spinosus assessed as growth inhibition at 75 ai g/ha after 20 days by green house test; assay type: functional
# [36] = biological target: Pyruvate dehydrogenase complex (Vigna radiata var. radiata); assay: Inhibition of PDHc in Vigna radiata var. radiata VC2778A shoot mitochondria assessed as decrease in rate of NADH formation using sodium pyruvate as substrate preincubated for 25 min before substrate addition measured after 1 min by spectrophotometric assay; assay type: protein-complex assay
# Echinochloa crus-galli [37] = assay: Post-emergence herbicidal activity against Echinochloa crus-galli (barnyard grass) assessed as growth inhibition at 450 ai g/ha after 20 days by green house test; assay type: functional
# Abutilon theophrasti [38] = assay: Post-emergence herbicidal activity against Abutilon theophrasti (velvetleaf) assessed as growth inhibition at 75 ai g/ha after 20 days by green house test; assay type: functional
# Abutilon theophrasti [39] = assay: Pre-emergence herbicidal activity against Abutilon theophrasti (velvetleaf) assessed as growth inhibition at 75 ai g/ha after 20 days by green house test; assay type: functional
# Cucumis sativus [40] = assay: Herbicidal activity against Cucumis sativus Jin 4 (cucumber) assessed as inhibition of stem growth after 3 days; assay type: functional, organism-based; details: Jin 4, 72 h
# Amaranthus spinosus [41] = assay: Pre-emergence herbicidal activity against Amaranthus spinosus assessed as growth inhibition at 75 ai g/ha after 20 days by green house test; assay type: functional
# [42] = Toxicity against Oryza sativa (rice) assessed as growth inhibition at 450 ai g/ha post-emergent application measured after 20 days by green house crop selectivity test; assay type: organism-based; details: in vivo, read-out: GI
# Amaranthus retroflexus [43] = assay: Post-emergence herbicidal activity against Amaranthus retroflexus assessed as growth inhibition at 450 ai g/ha after 20 days by green house test; assay type: functional
# Cucumis sativus [44] = assay: Herbicidal activity against Cucumis sativus Jin 4 (cucumber) assessed as inhibition of root growth after 3 days; assay type: functional, organism-based; details: Jin 4, 72 h
# Setaria viridis [45] = assay: Post-emergence herbicidal activity against Setaria viridis (green foxtail) assessed as growth inhibition at 75 ai g/ha after 20 days by green house test; assay type: functional
# Setaria viridis [46] = assay: Pre-emergence herbicidal activity against Setaria viridis (green foxtail) assessed as growth inhibition at 75 ai g/ha after 20 days by green house test; assay type: functional
# Pisum sativum = assay: Post-emergence herbicidal activity against Pisum sativum Zhongwan-2 (pea) assessed as growth inhibition at 450 ai g/ha after 20 days by green house test; details: Lathyrus oleraceus
smiles,measurement,setting,value
COP(=O)(OC)C(C)OC(=O)COc1ccc(Cl)cc1C (stereo not drawn),growth inhibition (GI),Digitaria sanguinalis [1],16%
same,growth inhibition (GI),Digitaria sanguinalis [2],0%
same,growth inhibition (GI),Chenopodium album [3],80%
same,growth inhibition (GI),Chenopodium album [4],60%
same,growth inhibition (GI),Chenopodium album [5],0%
same,growth inhibition (GI),Chenopodium album [6],0%
same,growth inhibition (GI),Amaranthus spinosus [7],100%
same,growth inhibition (GI),Amaranthus spinosus [8],10%
same,growth inhibition (GI),Abutilon theophrasti [9],0%
same,growth inhibition (GI),Abutilon theophrasti [10],0%
same,growth inhibition (GI),Medicago sativa [11],50%
same,growth inhibition (GI),Amaranthus retroflexus [12],90%
same,growth inhibition (GI),[13],90%
same,growth inhibition (GI),Digitaria sanguinalis [14],50%
same,growth inhibition (GI),Echinochloa crus-galli [15],50%
same,growth inhibition (GI),Medicago sativa [16],90%
same,growth inhibition (GI),Amaranthus retroflexus [17],90%
same,growth inhibition (GI),[18],90%
same,growth inhibition (GI),Digitaria sanguinalis [19],90%
same,growth inhibition (GI),Echinochloa crus-galli [20],90%
same,growth inhibition (GI),Amaranthus spinosus [21],30%
same,growth inhibition (GI),Amaranthus spinosus [22],0%
same,growth inhibition (GI),Abutilon theophrasti [23],96%
same,growth inhibition (GI),Abutilon theophrasti [24],82%
same,growth inhibition (GI),Setaria viridis [25],0%
same,growth inhibition (GI),Setaria viridis [26],0%
same,growth inhibition (GI),Setaria viridis [27],0%
same,growth inhibition (GI),Setaria viridis [28],0%
same,growth inhibition (GI),Digitaria sanguinalis [29],10%
same,growth inhibition (GI),Digitaria sanguinalis [30],0%
COP(=O)(OC)C(OC(=O)COc1ccc(Cl)cc1Cl)c1ccccc1 (stereo not drawn),growth inhibition (GI),Brassica juncea,97.5%
same,growth inhibition (GI),Digitaria sanguinalis [31],0%
same,growth inhibition (GI),Digitaria sanguinalis [1],45%
same,growth inhibition (GI),Digitaria sanguinalis [2],0%
same,growth inhibition (GI),Digitaria sanguinalis [32],0%
same,growth inhibition (GI),Chenopodium album [3],97.5%
same,growth inhibition (GI),Chenopodium album [4],92.5%
same,growth inhibition (GI),Chenopodium album [33],82.5%
same,growth inhibition (GI),Chenopodium album [5],0%
same,growth inhibition (GI),Chenopodium album [6],0%
same,growth inhibition (GI),Chenopodium album [34],0%
same,growth inhibition (GI),Amaranthus spinosus [7],87.5%
same,growth inhibition (GI),Amaranthus spinosus [8],70%
same,growth inhibition (GI),Amaranthus spinosus [35],62.5%
same,IC50,[36],95.4 µM
same,growth inhibition (GI),Echinochloa crus-galli [37],25%
same,growth inhibition (GI),Abutilon theophrasti [38],82.5%
same,growth inhibition (GI),Abutilon theophrasti [9],0%
same,growth inhibition (GI),Abutilon theophrasti [10],0%
same,growth inhibition (GI),Abutilon theophrasti [39],0%
same,IC50,Cucumis sativus [40],8.95 µM
same,growth inhibition (GI),Medicago sativa [11],90%
same,growth inhibition (GI),Amaranthus retroflexus [12],90%
same,growth inhibition (GI),[13],90%
same,growth inhibition (GI),Digitaria sanguinalis [14],<=50%
same,growth inhibition (GI),Echinochloa crus-galli [15],<=50%
same,growth inhibition (GI),Medicago sativa [16],90%
same,growth inhibition (GI),Amaranthus retroflexus [17],90%
same,growth inhibition (GI),[18],90%
same,growth inhibition (GI),Digitaria sanguinalis [19],50%
same,growth inhibition (GI),Echinochloa crus-galli [20],50%
same,growth inhibition (GI),Amaranthus spinosus [21],0%
same,growth inhibition (GI),Amaranthus spinosus [22],0%
same,growth inhibition (GI),Amaranthus spinosus [41],0%
same,inhibition at 480 h,[42],10%
same,growth inhibition (GI),Abutilon theophrasti [23],100%
same,growth inhibition (GI),Amaranthus retroflexus [43],87.5%
same,IC50,Cucumis sativus [44],0.0142 µM
same,growth inhibition (GI),Abutilon theophrasti [24],92.5%
same,growth inhibition (GI),Setaria viridis [25],0%
same,growth inhibition (GI),Setaria viridis [26],0%
same,growth inhibition (GI),Setaria viridis [45],0%
same,growth inhibition (GI),Setaria viridis [27],30%
same,growth inhibition (GI),Setaria viridis [28],0%
same,growth inhibition (GI),Setaria viridis [46],0%
same,growth inhibition (GI),Digitaria sanguinalis [29],0%
same,growth inhibition (GI),Digitaria sanguinalis [30],0%
same,growth inhibition (GI),Pisum sativum,96.5%
